Laboratory results taken from patent US20240148821A1, “PHARMACEUTICAL USE OF CYCLIC PEPTIDE COMPOUND” (CHUGAI SEIYAKU KABUSHIKI KAISHA, priority 2021, published 2024).
Numbered stars: 1 amine (or outer) side, 2 acyl side, 3 side chain; on linkers, the order of the positions; unused ones are H or OH. Bridge positions count the residues as written; N and C are the ends. Square brackets hold non-standard residues; d marks the D form. Peptide text beside a SMILES is read from it. * marks the point of attachment. hPhe(3,5-F2-4-CF3) = N[C@@H](CCc1cc(F)c(C(F)(F)F)c(F)c1)C(=O)O; hPhe(3-Cl-4-CF3) = N[C@@H](CCc1ccc(C(F)(F)F)c(Cl)c1)C(=O)O; hPhe(3-F,4-CF3) = N[C@@H](CCc1ccc(C(F)(F)F)c(F)c1)C(=O)O; NMePhe(4-CF3) = CN[C@@H](Cc1ccc(C(F)(F)F)cc1)C(=O)O; NMeAbu(4,4,4-F3) = CN[C@@H](CC(F)(F)F)C(=O)O; NMePhe(4-Cl) = CN[C@@H](Cc1ccc(Cl)cc1)C(=O)O; NMePhe(4-Me) = CN[C@@H](Cc1ccc(C)cc1)C(=O)O; NMePhe(4-F) = CN[C@@H](Cc1ccc(F)cc1)C(=O)O; X79 = O=C([C@H](Cc1ccc(Cl)s1)N[*:1])[*:2]; NMeGly(cPent) = CN[C@H](C(=O)O)C1CCCC1; Phe(3-I) = N[C@@H](Cc1cccc(I)c1)C(=O)O; Phe(4-F) = N[C@@H](Cc1ccc(F)cc1)C(=O)O; Pro(4,4-F2) = O=C(O)[C@@H]1CC(F)(F)CN1; NMeCha = CN[C@@H](CC1CCCCC1)C(=O)O; Hyp = O=C(O)[C@@H]1C[C@@H](O)CN1; NEtLeu = CCN[C@@H](CC(C)C)C(=O)O; NMeChg = CN[C@H](C(=O)O)C1CCCCC1; NMeF = CN[C@@H](Cc1ccccc1)C(=O)O; NMeI = CC[C@H](C)[C@H](NC)C(=O)O; NMeD = CN[C@@H](CC(=O)O)C(=O)O; NMeL = CN[C@@H](CC(C)C)C(=O)O; NMeNva = CCC[C@H](NC)C(=O)O; NMeV = CN[C@H](C(=O)O)C(C)C; d(β3hA) = C[C@@H](N)CC(=O)O; Morpholide = C1CN(*)CCO1; NMeA = CN[C@@H](C)C(=O)O; NMeAib = CNC(C)(C)C(=O)O; Nle = CCCC[C@H](N)C(=O)O; Piperidide = C1CCN(*)CC1; Pra = C#CC[C@H](N)C(=O)O; Pyrrolidide = C1CCN(*)C1; Ac5c = NC1(C(=O)O)CCCC1; Aze = O=C(O)[C@@H]1CCN1; Sar = CNCC(=O)O

The molecules below were run on Human pancreatic cancer cell line AsPC-1 (G12D mutation Kras) (assay: AsPC-1 cell growth inhibition (AsPC-1 CGI)). Settings: read-out: AsPC-1 cell growth inhibition, 50% growth inhibitory concentration (IC50 value); 96 hours, CellTiter-Glo, values classified in ranges.
Type: cell-based
Procedure: Test compounds were serially dilated with dimethyl sulfoxide, and 200 nL was then dispensed to a U-bottom 96-well plate using Labcyte Echo. […] The cell suspension was dispensed to a. plate containing a test compound at 100 μL per well and incubated at 37° C. in a 5% carbon dioxide gas incubator. 96 hours later, 80 μL of CellTiter-Glo (Promega) was added to each well and fluorescence was measured.

Compound | IC50 [µM]
CCCC[C@@H]1NC(=O)[C@H](Cc2ccc(F)cc2)NC(=O)CN(C)C(=O)[C@H](Cc2ccc(Cl)cc2)N(C)C(=O)CN(C)C(=O)CN(C)C(=O)[C@H]([C@@H](C)CC)NC(=O)[C@H](CC(C)C)N(C)C(=O)C[C@@H](C(=O)N2CCCCC2)N(C)C(=O)[C@H](CC(C)C)NC(=O)C(C)(C)N(C)C1=O [Compound 1305] ([NMeL]I[Sar][Sar][NMePhe(4-Cl)][Sar][Phe(4-F)][Nle][NMeAib]L[NMeD]-Piperidide; lactam N-11) | > 0.5
CCC[C@H]1C(=O)N[C@@H]([C@@H](C)CC)C(=O)N(C)CC(=O)N(C)CC(=O)N(C)[C@@H](Cc2ccc(C)cc2)C(=O)N(C)CC(=O)N[C@@H](CCc2cc(F)c(C(F)(F)F)c(F)c2)C(=O)N2CC(F)(F)C[C@H]2C(=O)NC2(CCCC2)C(=O)N(C)[C@@H](C2CCCCC2)C(=O)N(C)[C@H](C(=O)N2CCCC2)CC(=O)N1C [Compound 1306] ([NMeNva]I[Sar][Sar][NMePhe(4-Me)][Sar][hPhe(3,5-F2-4-CF3)][Pro(4,4-F2)][Ac5c][NMeChg][NMeD]-Pyrrolidide; lactam N-11) | ≤ 0.02
CC[C@H](C)[C@@H]1NC(=O)[C@H](CC(C)C)N(C)C(=O)C[C@@H](C)NC(=O)[C@H](C2CCCC2)N(C)C(=O)C2(CCCC2)NC(=O)[C@H](C)NC(=O)[C@H](CCc2ccc(C(F)(F)F)c(Cl)c2)NC(=O)CN(C)C(=O)[C@H](Cc2ccc(C)cc2)N(C)C(=O)[C@@H]2CCN2C(=O)[C@H](C)N(C)C1=O [Compound 1307] (cyclo(A[Ac5c][NMeGly(cPent)][d(β3hA)][NMeL]I[NMeA][Aze][NMePhe(4-Me)][Sar][hPhe(3-Cl-4-CF3)])) | > 0.5
C#CC[C@@H]1NC(=O)[C@H](Cc2cccc(I)c2)NC(=O)CN(C)C(=O)[C@H](Cc2ccccc2)N(C)C(=O)[C@@H]2CCN2C(=O)[C@H](C)N(C)C(=O)[C@H]([C@@H](C)CC)NC(=O)[C@H](CC(C)C)N(C)C(=O)C[C@@H](C(=O)N2CCCCC2)N(C)C(=O)[C@H](CC(C)C)NC(=O)C(C)(C)N(C)C1=O [Compound 1313] ([NMeL]I[NMeA][Aze][NMeF][Sar][Phe(3-I)][Pra][NMeAib]L[NMeD]-Piperidide; lactam N-11) | > 0.5
CC[C@H](C)[C@@H]1NC(=O)[C@H](CC(C)C)N(C)C(=O)C[C@@H](C(=O)N2CCCCC2)N(C)C(=O)[C@H](C(C)C)N(C)C(=O)C2(CCCC2)NC(=O)[C@@H](C)NC(=O)[C@H](CCc2ccc(C(F)(F)F)c(Cl)c2)NC(=O)CN(C)C(=O)[C@H](CC2CCCCC2)N(C)C(=O)[C@@H]2CCN2C(=O)[C@H](C)N(C)C1=O [Compound 1314] ([NMeL]I[NMeA][Aze][NMeCha][Sar][hPhe(3-Cl-4-CF3)][dA][Ac5c][NMeV][NMeD]-Piperidide; lactam N-11) | > 0.5
CC[C@H](C)[C@@H]1NC(=O)[C@H](CC(C)C)N(C)C(=O)C[C@@H](C(=O)N2CCCCC2)N(C)C(=O)[C@H](C(C)C)N(C)C(=O)C2(CCCC2)NC(=O)[C@H](C)NC(=O)[C@H](CCc2ccc(C(F)(F)F)c(Cl)c2)NC(=O)CN(C)C(=O)[C@H](CC2CCCCC2)N(C)C(=O)[C@@H]2CCN2C(=O)[C@H](C)N(C)C1=O [Compound 1316] ([NMeL]I[NMeA][Aze][NMeCha][Sar][hPhe(3-Cl-4-CF3)]A[Ac5c][NMeV][NMeD]-Piperidide; lactam N-11) | > 0.5
CC[C@H](C)[C@@H]1NC(=O)[C@H](CC(F)(F)F)N(C)C(=O)C[C@@H](C(=O)N2CCCC2)N(C)C(=O)[C@H](C2CCCCC2)N(C)C(=O)C2(CCCC2)NC(=O)[C@@H]2CC(F)(F)CN2C(=O)[C@H](CCc2cc(F)c(C(F)(F)F)c(F)c2)NC(=O)CN(C)C(=O)[C@H](Cc2ccc(C)cc2)N(C)C(=O)CN(C)C(=O)CN(C)C1=O [Compound 1317] ([NMeAbu(4,4,4-F3)]I[Sar][Sar][NMePhe(4-Me)][Sar][hPhe(3,5-F2-4-CF3)][Pro(4,4-F2)][Ac5c][NMeChg][NMeD]-Pyrrolidide; lactam N-11) | ≤ 0.02
CCCC[C@@H]1NC(=O)[C@H](Cc2ccc(Cl)s2)NC(=O)CN(C)C(=O)[C@H](Cc2ccc(Cl)cc2)N(C)C(=O)CN(C)C(=O)CN(C)C(=O)[C@H]([C@@H](C)CC)NC(=O)[C@H](CC(C)C)N(C)C(=O)C[C@@H](C(=O)N2CCCCC2)N(C)C(=O)[C@H](CC(C)C)NC(=O)C(C)(C)N(C)C1=O [Compound 1318] ([NMeL]I[Sar][Sar][NMePhe(4-Cl)][Sar][X79][Nle][NMeAib]L[NMeD]-Piperidide; lactam N-11) | > 0.5
CC[C@H](C)[C@@H]1NC(=O)[C@H](CC(C)C)N(CC)C(=O)C[C@@H](C(=O)N(C)C)N(C)C(=O)[C@H](C2CCCC2)N(C)C(=O)C2(CCCC2)NC(=O)[C@@H]2CCCN2C(=O)[C@H](CCc2ccc(C(F)(F)F)c(F)c2)NC(=O)CN(C)C(=O)[C@H](CC2CCCCC2)N(C)C(=O)[C@@H]2CCN2C(=O)[C@H](C)N(C)C1=O [Compound 1324] ([NEtLeu]I[NMeA][Aze][NMeCha][Sar][hPhe(3-F,4-CF3)]P[Ac5c][NMeGly(cPent)][NMeD]-NMe2; lactam N-11) | ≤ 0.02
C#CC[C@@H]1NC(=O)[C@H](Cc2cccc(I)c2)NC(=O)CN(C)C(=O)[C@H](Cc2ccc(F)cc2)N(C)C(=O)CN(C)C(=O)CN(C)C(=O)[C@H]([C@@H](C)CC)NC(=O)[C@H](CC(C)C)N(C)C(=O)C[C@@H](C(=O)N2CCCCC2)N(C)C(=O)[C@H](CC(C)C)NC(=O)C(C)(C)N(C)C1=O [Compound 1327] ([NMeL]I[Sar][Sar][NMePhe(4-F)][Sar][Phe(3-I)][Pra][NMeAib]L[NMeD]-Piperidide; lactam N-11) | > 0.5
CC[C@H](C)[C@@H]1NC(=O)[C@H](CC(C)C)N(C)C(=O)C[C@@H](C)NC(=O)[C@H](C2CCCC2)N(C)C(=O)C2(CCCC2)NC(=O)[C@@H](C)NC(=O)[C@H](CCc2ccc(C(F)(F)F)c(Cl)c2)NC(=O)CN(C)C(=O)[C@H](Cc2ccc(C)cc2)N(C)C(=O)[C@@H]2CCN2C(=O)[C@H](C)N(C)C1=O [Compound 1328] (cyclo([Ac5c][NMeGly(cPent)][d(β3hA)][NMeL]I[NMeA][Aze][NMePhe(4-Me)][Sar][hPhe(3-Cl-4-CF3)][dA])) | > 0.5
CCO[C@@H]1C[C@H]2C(=O)NC3(CCCC3)C(=O)N(C)[C@@H]([C@@H](C)CC)C(=O)N(C)[C@H](C(=O)N3CCOCC3)CC(=O)N(C)[C@@H](CC(C)C)C(=O)N[C@@H]([C@@H](C)CC)C(=O)N(C)[C@@H](C)C(=O)N3CC[C@H]3C(=O)N(C)[C@@H](Cc3ccc(C(F)(F)F)cc3)C(=O)N(C)CC(=O)N[C@@H](CCc3ccc(C(F)(F)F)c(Cl)c3)C(=O)N2C1 [Compound 1330] ([NMeL]I[NMeA][Aze][NMePhe(4-CF3)][Sar][hPhe(3-Cl-4-CF3)][Hyp](Et)[Ac5c][NMeI][NMeD]-Morpholide; lactam N-11) | ≤ 0.02
CC[C@H](C)[C@@H]1NC(=O)[C@H](CC(C)C)N(C)C(=O)C[C@@H](C(=O)N2CCOCC2)N(C)C(=O)[C@H](C2CCCCC2)N(C)C(=O)C2(CCCC2)NC(=O)[C@@H]2CCCN2C(=O)[C@H](CCc2ccc(C(F)(F)F)c(Cl)c2)NC(=O)CN(C)C(=O)[C@H](CC2CCCCC2)N(C)C(=O)CN(C)C(=O)CN(C)C1=O [Compound 1333] ([NMeL]I[Sar][Sar][NMeCha][Sar][hPhe(3-Cl-4-CF3)]P[Ac5c][NMeChg][NMeD]-Morpholide; lactam N-11) | ≤ 0.02
CC[C@H](C)[C@@H]1NC(=O)[C@H](CC(C)C)N(C)C(=O)C[C@@H](C(=O)N2CCOCC2)N(C)C(=O)[C@H](C2CCCCC2)N(C)C(=O)C2(CCCC2)NC(=O)[C@@H]2CC(F)(F)CN2C(=O)[C@H](CCc2cc(F)c(C(F)(F)F)c(F)c2)NC(=O)CN(C)C(=O)[C@H](CC2CCCCC2)N(C)C(=O)CN(C)C(=O)CN(C)C1=O [Compound 1337] ([NMeL]I[Sar][Sar][NMeCha][Sar][hPhe(3,5-F2-4-CF3)][Pro(4,4-F2)][Ac5c][NMeChg][NMeD]-Morpholide; lactam N-11) | ≤ 0.02
CC[C@H](C)[C@@H]1NC(=O)[C@H](CC(C)C)N(C)C(=O)C[C@@H](C(=O)N2CCCC2)N(C)C(=O)[C@H](C2CCCC2)N(C)C(=O)C2(CCCC2)NC(=O)[C@@H]2CCCN2C(=O)[C@H](CCc2cc(F)c(C(F)(F)F)c(F)c2)NC(=O)CN(C)C(=O)[C@H](CC2CCCCC2)N(C)C(=O)CN(C)C(=O)CN(C)C1=O [Compound 1342] ([NMeL]I[Sar][Sar][NMeCha][Sar][hPhe(3,5-F2-4-CF3)]P[Ac5c][NMeGly(cPent)][NMeD]-Pyrrolidide; lactam N-11) | ≤ 0.02
CC[C@H](C)[C@@H]1NC(=O)[C@H](CC(C)C)N(C)C(=O)C[C@@H](C(=O)N2CCCC2)N(C)C(=O)[C@H]([C@@H](C)CC)N(C)C(=O)C2(CCCC2)NC(=O)[C@@H]2CCCN2C(=O)[C@H](CCc2cc(F)c(C(F)(F)F)c(F)c2)NC(=O)CN(C)C(=O)[C@H](Cc2ccc(C(F)(F)F)cc2)N(C)C(=O)[C@@H]2CCN2C(=O)[C@H](C)N(C)C1=O [Compound 1343] ([NMeL]I[NMeA][Aze][NMePhe(4-CF3)][Sar][hPhe(3,5-F2-4-CF3)]P[Ac5c][NMeI][NMeD]-Pyrrolidide; lactam N-11) | ≤ 0.02
CC[C@H](C)[C@@H]1NC(=O)[C@H](CC(C)C)N(C)C(=O)C[C@@H](C(=O)N2CCCCC2)N(C)C(=O)[C@H](C2CCCCC2)N(C)C(=O)C2(CCCC2)NC(=O)[C@@H]2CCCN2C(=O)[C@H](CCc2ccc(C(F)(F)F)c(Cl)c2)NC(=O)CN(C)C(=O)[C@H](CC2CCCCC2)N(C)C(=O)CN(C)C(=O)[C@H](C)N(C)C1=O [Compound 1345] ([NMeL]I[NMeA][Sar][NMeCha][Sar][hPhe(3-Cl-4-CF3)]P[Ac5c][NMeChg][NMeD]-Piperidide; lactam N-11) | > 0.5
CC[C@H](C)[C@@H]1NC(=O)[C@H](CC(C)C)N(C)C(=O)C[C@@H](C(=O)N(C)C)N(C)C(=O)[C@H](C2CCCC2)N(C)C(=O)C2(CCCC2)NC(=O)[C@@H]2CC(F)(F)CN2C(=O)[C@H](CCc2cc(F)c(C(F)(F)F)c(F)c2)NC(=O)CN(C)C(=O)[C@H](CC2CCCCC2)N(C)C(=O)[C@@H]2CCN2C(=O)[C@H](C)N(C)C1=O [Compound 1346] ([NMeL]I[NMeA][Aze][NMeCha][Sar][hPhe(3,5-F2-4-CF3)][Pro(4,4-F2)][Ac5c][NMeGly(cPent)][NMeD]-NMe2; lactam N-11) | ≤ 0.02
